Test results reported in ChEMBL document CHEMBL1136408, “Structure-activity and crystallographic analysis of benzophenone derivatives-the potential anticancer agents” (Bioorg Med Chem Lett, 2003).

Experiments:
KB [1] = assay: Inhibitory concentration against human oral cancer cell line (KB) using tetrazolium dye reduction assay (MTT); assay type: functional, cell-based
KB 3-1 [2] = assay: Compound was tested for cell arrest at Go/G1 phase at 50 nM concentration in KB human cancer cells; assay type: functional; conditions: read-out: Inhibition
KB [3] = assay: Inhibitory concentration against VP16 resistant cell line (KB-7D) using tetrazolium dye reduction assay (MTT); assay type: functional, cell-based; conditions: Homo sapiens
KB [4] = assay: Inhibitory concentration against vincristine-resistant cell line (KB-Vin 10) using tetrazolium dye reduction assay (MTT); assay type: functional, cell-based; conditions: Homo sapiens
KB 3-1 [5] = assay: Compound was tested for cell arrest at sub-G1 phase at 100 nM concentration in KB human cancer cells; assay type: functional; conditions: read-out: Inhibition
KB 3-1 [6] = assay: Compound was tested for cell arrest at S phase at 100 nM concentration in KB human cancer cells; assay type: functional; conditions: read-out: Inhibition
KB 3-1 [7] = assay: Compound was tested for cell arrest at G2/M phase at 25 nM concentration in KB human cancer cells; assay type: functional; conditions: read-out: Inhibition
CPT30 cell line = assay: Inhibitory concentration against camptothecin (CPT) resistant cell line using tetrazolium dye reduction assay (MTT); assay type: functional, cell-based; conditions: Homo sapiens
KB 3-1 [8] = assay: Compound was tested for cell arrest at S phase at 50 nM concentration in KB human cancer cells; assay type: functional; conditions: read-out: Inhibition
KB 3-1 [9] = assay: Compound was tested for cell arrest at sub-G1 phase at 25 nM concentration in KB human cancer cells; assay type: functional; conditions: for Percent of cells arrested in sub-G1 phase at 0.025 µM: Homo sapiens, KB 3-1, read-out: Inhibition
KB 3-1 [10] = assay: Compound was tested for cell arrest at sub-G1 phase at 50 nM concentration in KB human cancer cells; assay type: functional; conditions: read-out: Inhibition
HONE1 cell line = assay: Inhibitory concentration against human NPC cancer cell line using tetrazolium dye reduction assay (MTT); assay type: functional, cell-based
KB [11] = assay: Inhibitory concentration against camptothecin (CPT) resistant cell line (KB-100) using tetrazolium dye reduction assay (MTT); assay type: functional, cell-based; conditions: Homo sapiens
KB 3-1 [12] = assay: Compound was tested for cell arrest at Go/G1 phase at 100 nM concentration in KB human cancer cells; assay type: functional; conditions: read-out: Inhibition
KB 3-1 [13] = assay: Compound was tested for cell arrest at S phase at 25 nM concentration in KB human cancer cells; assay type: functional; conditions: read-out: Inhibition
KB 3-1 [14] = assay: Compound was tested for cell arrest at G2/M phase at 50 nM concentration in KB human cancer cells; assay type: functional; conditions: read-out: Inhibition
KB 3-1 [15] = assay: Compound was tested for cell arrest at G2/M phase at 100 nM concentration in KB human cancer cells; assay type: functional; conditions: read-out: Inhibition
KB 3-1 [16] = assay: Compound was tested for cell arrest at Go/G1 phase at 25 nM concentration in KB human cancer cells; assay type: functional; conditions: read-out: Inhibition
KB [17] = assay: Inhibitory concentration against taxol resistant cell line (KBs5) at a concentration of 50 nM using tetrazolium dye reduction assay (MTT); assay type: functional, cell-based; conditions: Homo sapiens

Row | IC50 (KB [1]) | IC50 (KB [3]) | IC50 (KB [4]) | IC50 (KB [11]) | IC50 (KB [17]) | Structure (SMILES) | % cells in G0/G1 phase at 0.05 µM (KB 3-1 [2]) | Percent of cells in sub-G1 phase at 0.1 µM (KB 3-1 [5]) | Cells arrested in S phase at 0.1 µM (KB 3-1 [6]) | percent of cells arrested in G2/M phase at 0.025 µM (KB 3-1 [7]) | IC50 (CPT30 cell line) | percent of cells arrested in S phase at 0.05 µM (KB 3-1 [8]) | Percent of cells arrested in sub-G1 phase at 0.025 µM (KB 3-1 [9]) | Cells in sub-G1 phase at 0.05 µM (KB 3-1 [10]) | IC50 (HONE1 cell line) | percent cells arrested in G0/G1 phase at 0.1 µM (KB 3-1 [12]) | Cells arrested in S phase (%) at 0.025 µM (KB 3-1 [13]) | Cells arrested in G2/M phase (%) at 0.05 µM (KB 3-1 [14]) | percent of cells arrested in G2/M phase at 0.1 µM (KB 3-1 [15]) | percent of cells in G0/G1 phase at 0.025 µM (KB 3-1 [16]) | Percent of cells arrested in sub-G1 phase (KB 3-1 [9])
1 | 5460 nM | 5450 nM | 8340 nM | 4070 nM | 4550 nM | COc1cc(C(=O)c2cc(Cl)ccc2O)cc(OC)c1OC | 59.4% | 26.5% | 11.8% | 18.3% | 5000 nM | 15.9% | 5.3% | 5.7% | 6110 nM | 45.4% | 14.6% | 18.9% | 16% | 61.8% | –
2 | 38.5 nM | 38.1 nM | 48.6 nM | 22.5 nM | 34.7 nM | COc1ccc(N)c(C(=O)c2cc(OC)c(OC)c(OC)c2)c1 | – | – | – | – | 41 nM | – | – | – | 59.2 nM | – | – | – | – | – | –
3 | 25.8 nM | 29.3 nM | 45.8 nM | 18.9 nM | 25.6 nM | COc1ccc(C(=O)c2cc(OC)c(OC)c(OC)c2)c(N)c1 | – | – | – | – | 37.3 nM | – | – | – | 35.8 nM | – | – | – | – | – | –
4 | 129 nM | 180 nM | 34.1 nM | 34.8 nM | 184 nM | COc1ccc(C(=O)c2cc(OC)c(OC)c(OC)c2)cc1O [PHENSTATIN] | 7.6% | 13% | 7.7% | 39.6% | 37.2 nM | 10.5% | 32.9% | 17.8% | 138 nM | 5.6% | 9.9% | 63.9% | 73.5% | 17.6% | –
5 | 90.4 nM | 104 nM | 97.2 nM | 156 nM | 71 nM | COc1cc(C(=O)c2cc(Cl)ccc2N)cc(OC)c1OC | 61.7% | 13.9% | 7.1% | 17.3% | 60.3 nM | 14.6% | – | 6.4% | 64.5 nM | 5.7% | 14.3% | 17.3% | 73.2% | 61.7% | 6.5%
6 | 6080 nM | 5410 nM | 5850 nM | 7160 nM | 2290 nM | CNc1ccc(Cl)cc1C(=O)c1cc(OC)c(OC)c(OC)c1 | – | – | – | – | 5350 nM | – | – | – | 5140 nM | – | – | – | – | – | –

Row | Structure (SMILES) | IC50 (KB [1]) | IC50 (KB [3]) | IC50 (KB [4]) | IC50 (KB [11]) | IC50 (KB [17]) | % cells in G0/G1 phase at 0.05 µM (KB 3-1 [2]) | Percent of cells in sub-G1 phase at 0.1 µM (KB 3-1 [5]) | Cells arrested in S phase at 0.1 µM (KB 3-1 [6]) | percent of cells arrested in G2/M phase at 0.025 µM (KB 3-1 [7]) | IC50 (CPT30 cell line) | percent of cells arrested in S phase at 0.05 µM (KB 3-1 [8]) | Percent of cells arrested in sub-G1 phase at 0.025 µM (KB 3-1 [9]) | Cells in sub-G1 phase at 0.05 µM (KB 3-1 [10]) | IC50 (HONE1 cell line) | percent cells arrested in G0/G1 phase at 0.1 µM (KB 3-1 [12]) | Cells arrested in S phase (%) at 0.025 µM (KB 3-1 [13]) | Cells arrested in G2/M phase (%) at 0.05 µM (KB 3-1 [14]) | percent of cells arrested in G2/M phase at 0.1 µM (KB 3-1 [15]) | percent of cells in G0/G1 phase at 0.025 µM (KB 3-1 [16]) | Percent of cells arrested in sub-G1 phase (KB 3-1 [9])
7 | COc1ccc(/C=C\c2cc(OC)c(OC)c(OC)c2)cc1O [COMBRETASTATIN A4] | 6.2 nM | 7.9 nM | 9.5 nM | 7.3 nM | 7 nM | 9.3% | 11.6% | 10.6% | 61.6% | 6.9 nM | 10.6% | 18.3% | 16.8% | 6.5 nM | 5.2% | 11% | 63.2% | 72.3% | 8.9% | –
